# Measured values as given in PubChem BioAssay (NCI).
#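 The concentration for 50% growth inhibition is given as GI50. At the TGI there is no net growth.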
# How the values were obtained:
# Test in all cases: inhibition of tumour cell growth, NCI panel, 384-well format
# [1] = tested on: NCI-H23 lung
# [2] = tested on: NCI-H322M lung
# [3] = tested on: NCI-H460 NSCLC
# [4] = tested on: NCI-H522 lung
# [5] = tested on: NCI/ADR-RES ovarian
# [6] = tested on: OVCAR-3 ovarian
# [7] = tested on: OVCAR-4 ovarian
# [8] = tested on: OVCAR-5 ovarian
# [9] = tested on: OVCAR-8 ovarian
# [10] = tested on: PC-3 prostate
# [11] = tested on: RPMI-8226 leukemia
# [12] = tested on: RXF 393 renal
# [13] = tested on: SF-268 CNS
# [14] = tested on: SF-295 CNS
# [15] = tested on: SF-539 CNS
# [16] = tested on: SK-MEL-28 melanoma
# [17] = tested on: SK-MEL-5 melanoma
# [18] = tested on: SK-OV-3 ovarian
# [19] = tested on: SN12C renal
# [20] = tested on: SNB-19 CNS
# [21] = tested on: SNB-75 CNS
# [22] = tested on: SR leukemia
# [23] = tested on: T-47D breast
# [24] = tested on: TK-10 renal
# [25] = tested on: U251 glioblastoma
# [26] = tested on: UACC-257 melanoma
# [27] = tested on: UACC-62 melanoma
compound,measurement,setting,value
Cn1ncc(Cl)c1-c1cc(C(=O)N[C@H](CN)Cc2ccc(F)c(F)c2)oc1Cl,GI50,[1],2700 nM
same,TGI,[1],11100 nM
same,GI50,[2],2340 nM
same,TGI,[2],13900 nM
same,GI50,[3],87.6 nM
same,TGI,[3],2180 nM
same,GI50,[4],2240 nM
same,TGI,[4],7940 nM
same,GI50,[5],4100 nM
same,TGI,[5],16300 nM
same,GI50,[6],2170 nM
same,TGI,[6],14100 nM
same,GI50,[7],6600 nM
same,TGI,[7],19100 nM
same,GI50,[8],1570 nM
same,TGI,[8],4560 nM
same,GI50,[9],3310 nM
same,TGI,[9],15600 nM
same,GI50,[10],128 nM
same,TGI,[10],2160 nM
same,GI50,[11],1540 nM
same,TGI,[11],2990 nM
same,GI50,[12],386 nM
same,TGI,[12],2180 nM
same,GI50,[13],4700 nM
same,TGI,[13],16900 nM
same,GI50,[14],527 nM
same,TGI,[14],2300 nM
same,GI50,[15],79.4 nM
same,TGI,[15],1920 nM
same,GI50,[16],1140 nM
same,TGI,[16],2450 nM
same,GI50,[17],1010 nM
same,TGI,[17],2180 nM
same,GI50,[18],431 nM
same,TGI,[18],8200 nM
same,GI50,[19],1960 nM
same,TGI,[19],11100 nM
same,GI50,[20],1480 nM
same,TGI,[20],14900 nM
same,GI50,[21],211 nM
same,TGI,[21],2290 nM
same,GI50,[22],517 nM
same,TGI,[22],1860 nM
same,GI50,[23],137 nM
same,TGI,[23],5550 nM
same,GI50,[24],569 nM
same,TGI,[24],2900 nM
same,GI50,[25],1140 nM
same,TGI,[25],3970 nM
same,GI50,[26],1050 nM
same,TGI,[26],2240 nM
same,GI50,[27],1060 nM
same,TGI,[27],2310 nM
